Earlier results in US20080160503A1, “RAPID ANALYSIS OF ORAL BIOAVAILABILITY” (priority 2006, published 2008).

Conditions: background statement; for bioavailability through the oral route: no data shown; for first-pass metabolism: oral administration, gut wall and liver

SMILES	bioavailability through the oral route	first-pass metabolism
NC[C@H](O)c1ccc(O)c(O)c1 [norepinephrine]	virtually zero	–
C[C@]12CC[C@H]3[C@@H](CCC4=CC(=O)CC[C@@]43C)[C@@H]1CC[C@@H]2O [testosterone]	virtually zero	extensive
CC(C)NCC(O)c1ccc(O)c(O)c1 (centres unmarked) [isoproterenol]	virtually zero	extensive
